We go through two molecules from patent US10111854B2, “Synthesis and use of amine-containing flavonoids as potent anti-leishmanial agents” (The Hong Kong Polytechnic University, priority 2014, dated 2018).

For data set [1], the system named is L. major FV1 promastigotes. Put plainly: Anti-promastigote activity (MTS assay), L. major FV1. The conditions noted are these: Leishmania major, 72 hours. The class given is cell-based. Summed up: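 Promastigotes (1×10^5 per well) in Schneider's medium pH 6.9 with 10% FBS, exposed to serial compound concentrations for 72 h at 27 °C. Viability by MTS/PMS reduction over 4 h, OD 490 nm; IC50 derived.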

Data set [2] has as its system L. braziliensis UA847 amastigotes. The data set is described as follows: Anti-amastigote activity in infected PEM, L. braziliensis UA847. Format: cell-based. The following applies: Leishmania braziliensis, 72 h, 3 days, Giemsa, read-out: Anti-amastigote activity IC50, L. baziliensis UA847. In short, it runs like this:
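IC50 values derive from the number of amastigotes per 100 macrophages, counted on Giemsa-stained cover slips. Infected mouse PEM had been treated for 72 h at 37 °C.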

For data set [3], the system named is L. amazonensis promastigotes. The data set is described as follows: Mitochondrial membrane potential (rhodamine 123) and survivors (MTS) of promastigotes. The class given is cell-based. The following applies: for viability at 10 µM: Leishmania amazonensis, read-out: % of viable cells (MTS). As for the experimental part:
1×10^7 promastigotes were seeded into each well of 6-well plate. The promastigotes were incubated with different concentrations (0, 1.25, 2.5, 5 and 10 μM) of FM09 for 24 and 48 hr, respectively. After incubation, promastigotes were washed two times with 1×PBS and resuspended with 1000 μL of supplemented Schneider's Insect media containing 10 μg/mL of rhodamine 123 in an Eppendorf. The promastigotes were incubated with rhodamine 123 at room temperature for 40 min with shaking. After incubation, promastigotes were washed one time with cold 1×PBS and then re-suspended with 100 μL of 1×PBS. The fluorescent level of rhodamine 123 was measured with a microplate reader (excitation: 485 nm and emission: 520 nm).
L. amazonensis promastigotes were cultivated in different concentration (0, 1.25, 2.5, 5 and 10 μM) of FM09 for 24 hr or 48 hr. The promastigotes were washed and exposed to rhodamine 123 (10 μg/mL) for 40 min. The level of rhodamine 123 accumulation was measured at 520 nm using 485 nm as an excitation wavelength. 0.2% DMSO was used as a solvent control. The values were presented as mean±standard error of mean.

Data set [4] can be described thus: Pharmacokinetics study of FM09, FM09h and FM05b, iv and oral. The class given is in vivo, Balb/c mice. The conditions noted are these: 50 mg/kg oral. As for the experimental part:
Animals were sacrificed at the indicated time point and plasma level of the corresponding flavonoids were determined using LC-MSMS. IC50 of corresponding flavonoids are indicated. Bioavailability (F) was calculated by dividing the dose-adjusted area under curve (AUC) of that of orally-fed over intravenously administered animals.

Data set [5] deals with promastigotes (L. amazonensis LV78, L major FV1, L. donovani HU3, L. donovani 39). The data set is described as follows: Anti-promastigote activity, strain not given. The conditions noted are these: Leishmania amazonensis; strain not specified; read-out: IC50 against promastigotes. The class given is cell-based. Summed up:
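Promastigotes seeded at 1×10^5 per well and exposed to a concentration series of compound for 72 hours at 27° C. Viability read by MTS/PMS tetrazolium reduction (4 hours, OD 490 nm); IC50 derived.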

The subject of data set [6] is L. donovani (LdAG83) promastigotes. Put plainly: Anti-promastigote activity, wild type L. donovani LdAG83. Format: cell-based. The following applies: Leishmania donovani; printed in HU3 column; footnote *: wild type LdAG83 used instead of HU3.
Data set [7] deals with peritoneal elicited macrophages (PEM). The data set is described as follows: Cytotoxicity, peritoneal elicited macrophages (PEM). Format: cell-based, mouse. The following applies: mouse.
A short description of data set [8]: Water solubility. The class given is physicochemical. An excerpt:
In terms of physicochemical properties, all flavonoid monomers listed as active against either L. amazonensis (Table 3A) or L. donovani (Table 3B) are smaller than 39, and have fewer H-bond donors and acceptors. They also have a lower calculated ACDLogP (1.978 to 4.537) than 39 (5.104), except FM05 (5.011), FM17 (5.101) and FM19 (5.451). The lower ACDLogP values mean more water soluble; better partition between hydrophilic and hydrophobic phases and potentially easier to be absorbed orally. Indeed, these flavonoid monomers are highly water soluble (up to about 40 mg/mL of the hydrochloride salt) whereas 39 is not (up to about 4 mg/ml).

The test system of data set [9] is L. amazonensis. The following applies: cutaneous leishmaniasis murine model; cited from earlier work.

Converted amounts (≈) assume the structure as drawn. Like-named read-outs stand apart in the source and are kept apart here.

Regarding `O=c1cc(-c2ccc(OCCOCCN(Cc3ccccn3)Cc3ccccn3)cc2)oc2ccccc12` [FM09, 2-(4-(2-(2-(bis(pyridin-2-ylmethyl)amino)ethoxy)ethoxy)phenyl)-4H-chromen-4-one], the IC50 was 800 ± 100 nM in data set [1], 600 ± 100 nM in data set [2] and less than 5000 nM in data set [5]. Also, the “Mitochondrial potential (rhodamine 123 accumulation)” value in [3] (0-10 μM, 24 hr and 48 hr, dose-dependent) is recorded as “drop of mitochondrial potential”. Besides, the “% of survivors (MTS)” value was “about 100%” in data set [3] (1.25 μM, 24 hr and 48 hr); “about 100%” in [3] (2.5 μM, 24 hr and 48 hr); 68% in data set [3] (5 μM, 24 hr); 88% in data set [3] (5 μM, 48 hr). The viability at 10 µM in data set [3] (24 hr) is 29%; in data set [3] (48 hr) it was 23%. Further, the “Clearance from plasma after oral feeding” value in [4] was “rapidly cleared”. Further, the bioavailability in data set [4] (Balb/c, mouse, plasma, 10 mg/kg iv, dose-adjusted AUC oral over iv, read-out: Bioavailability (F)) was determined as 14%.
As to `O=c1cc(-c2ccc(OCCOCCN(CCOCCOc3ccc(-c4cc(=O)c5ccccc5o4)cc3)Cc3ccncc3)cc2)oc2ccccc12` [compound 39], the values for the IC50 in [6] and in data set [7] were 200 ± 30 nM and more than 88000 nM, respectively. Further, the solubility in data set [8] was approximately 4000 µg/mL (≈ 5.52 mM). For the same molecule, the “Foot pad lesion size” value in data set [9] is reported as “effective in reducing foot pad lesion size”.
